Measurements reported in ChEMBL document CHEMBL4376896, “Synthesis of Novel Potent Archazolids: Pharmacology of an Emerging Class of Anticancer Drugs” (J Med Chem, 2020).
Calls of active or inactive are those of the source. The rule behind the calls is not given here.

Key:
P2X purinoceptor 3 = molecular target: T1, P2X purinoceptor 3 (Homo sapiens, UniProt P56373); assay: Inhibition of human P2X3 assessed as reduction in agonist-induced intracellular Ca2+ concentration pre-incubated for 30 mins before agonist addition by calcium 5 dye based fluorescence assay; type: cell-based
T1 sequence (P56373 whole entry): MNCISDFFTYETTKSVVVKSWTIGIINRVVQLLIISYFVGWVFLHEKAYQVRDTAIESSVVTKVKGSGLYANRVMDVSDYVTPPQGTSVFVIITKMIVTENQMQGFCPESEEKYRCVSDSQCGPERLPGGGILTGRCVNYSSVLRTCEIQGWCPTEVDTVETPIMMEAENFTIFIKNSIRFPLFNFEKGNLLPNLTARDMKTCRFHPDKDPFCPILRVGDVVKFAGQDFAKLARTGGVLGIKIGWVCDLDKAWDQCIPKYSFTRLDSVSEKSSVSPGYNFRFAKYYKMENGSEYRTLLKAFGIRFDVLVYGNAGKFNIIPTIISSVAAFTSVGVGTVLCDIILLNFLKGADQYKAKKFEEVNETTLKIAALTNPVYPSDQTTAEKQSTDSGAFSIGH

Neutrophil elastase = molecular target: T2, Neutrophil elastase (Homo sapiens, UniProt P08246); assay: Inhibition of human leukocyte elastase assessed as reduction in pNA release using chromogenic MeO-Suc-Ala-Ala-Pro-Val-pNA substrate measured over 10 mins by spectrophotometry
T2 sequence (P08246 whole entry): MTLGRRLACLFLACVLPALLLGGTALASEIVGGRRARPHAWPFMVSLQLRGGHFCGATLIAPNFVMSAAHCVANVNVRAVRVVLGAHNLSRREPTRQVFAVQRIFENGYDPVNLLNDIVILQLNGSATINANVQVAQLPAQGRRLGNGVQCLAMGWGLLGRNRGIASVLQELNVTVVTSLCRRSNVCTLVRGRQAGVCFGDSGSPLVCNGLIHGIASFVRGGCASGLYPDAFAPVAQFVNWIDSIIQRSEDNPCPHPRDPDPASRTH

[1] = Inhibition of Manduca sexta V-type proton ATPase assessed as reduction in inorganic phosphate production pre-inucubated for 5 mins before Tris-ATP addition and measured after 2 mins
cells = conditions: Homo sapiens, 1321-N1, 72 h
Description: Growth inhibition of human 1321N1 cells incubated for 72 hrs by MTT assay

Adenosine receptor A3 = molecular target: T3, Adenosine receptor A3 (Homo sapiens, UniProt P0DMS8); assay: Displacement of [3H]PSB-11 from human A3 adenosine receptor expressed in CHO cell membranes incubated for 60 mins by liquid scintillation counting method
T3 sequence (P0DMS8 whole entry): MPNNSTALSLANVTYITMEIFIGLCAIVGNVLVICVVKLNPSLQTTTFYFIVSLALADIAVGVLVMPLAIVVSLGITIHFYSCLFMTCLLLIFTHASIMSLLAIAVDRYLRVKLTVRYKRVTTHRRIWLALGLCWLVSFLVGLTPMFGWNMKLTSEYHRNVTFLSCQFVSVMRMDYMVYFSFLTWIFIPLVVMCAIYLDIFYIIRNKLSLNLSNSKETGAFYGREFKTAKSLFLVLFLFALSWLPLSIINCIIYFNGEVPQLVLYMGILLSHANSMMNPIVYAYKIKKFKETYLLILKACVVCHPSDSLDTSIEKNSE

Homo sapiens = organism: Homo sapiens; assay: Inhibition of Calcium channel (unknown origin) at 10 uM relative to control
[2] = molecular target: P2Y purinoceptor 6 (Homo sapiens) (UniProt Q15077); assay: Inhibition of human P2Y6 assessed as reduction in agonist-induced intracellular Ca2+ concentration at 10 uM pre-incubated for 30 mins before agonist addition by FLUO-4 AM dye based fluorescence assay; type: functional, cell-based
[3] = molecular target: P2X purinoceptor 2 (Homo sapiens) (UniProt Q9UBL9); assay: Inhibition of human P2X2 assessed as reduction in agonist-induced intracellular Ca2+ concentration at 10 uM pre-incubated for 30 mins before agonist addition by FLUO-4 AM dye based fluorescence assay; type: cell-based
[4] = molecular target: P2Y purinoceptor 11 (Homo sapiens) (UniProt Q96G91); assay: Inhibition of human P2Y11 assessed as reduction in agonist-induced intracellular Ca2+ concentration at 10 uM pre-incubated for 30 mins before agonist addition by FLUO-4 AM dye based fluorescence assay; type: functional, cell-based
[5] = molecular target: P2X purinoceptor 7 (Homo sapiens) (UniProt Q99572); assay: Inhibition of human P2X7 assessed as reduction in agonist-induced intracellular Ca2+ concentration at 10 uM pre-incubated for 30 mins before agonist addition by FLUO-4 AM dye based fluorescence assay; type: cell-based
[6] = molecular target: P2X purinoceptor 1 (Homo sapiens) (UniProt P51575); assay: Inhibition of human P2X1 assessed as reduction in agonist-induced intracellular Ca2+ concentration at 10 uM pre-incubated for 30 mins before agonist addition by calcium 5 dye based fluorescence assay; type: cell-based
[7] = molecular target: Uracil nucleotide/cysteinyl leukotriene receptor (Homo sapiens) (UniProt Q13304); assay: Inhibition of human GPR17 at 10 uM by Oregon-green BAPTA-1/AM dye based calcium mobilization assay; type: functional
[8] = molecular target: Adenosine receptor A1 (Homo sapiens) (UniProt P30542); assay: Inhibition of human A1 adenosine receptor incubated for 60 mins by liquid scintillation counting method
[9] = molecular target: P2Y purinoceptor 4 (Homo sapiens) (UniProt P51582); assay: Inhibition of human P2Y4 assessed as reduction in agonist-induced intracellular Ca2+ concentration at 10 uM pre-incubated for 30 mins before agonist addition by FLUO-4 AM dye based fluorescence assay; type: functional, cell-based
[10] = molecular target: Chymotrypsin (Homo sapiens) (UniProt Q99895+P17538+P40313+Q6GPI1); assay: Inhibition of chymotrypsin (unknown origin) assessed as reduction in pNA release using chromogenic Suc-Ala-Ala-Pro-Phe-pNA substrate measured over 12.5 mins by spectrophotometry; type: protein assay
[11] = molecular target: P2Y purinoceptor 14 (Homo sapiens) (UniProt Q15391); assay: Inhibition of human P2Y14 assessed as reduction in agonist-induced intracellular Ca2+ concentration at 10 uM pre-incubated for 30 mins before agonist addition by FLUO-4 AM dye based fluorescence assay; type: functional, cell-based
[12] = molecular target: P2X purinoceptor 3 (Homo sapiens) (UniProt P56373); assay: Non-competitive inhibition of human P2X3 expressed in human 1321N1 cells assessed as reduction in maximal effect of ATP-induced intracellular Ca2+ concentration pre-incubated for 30 mins before agonist addition by calcium 5 dye based fluorescence assay; type: cell-based
[13] = molecular target: P2Y purinoceptor 12 (Homo sapiens) (UniProt Q9H244); assay: Inhibition of human P2Y12 assessed as reduction in agonist-induced intracellular Ca2+ concentration at 10 uM pre-incubated for 30 mins before agonist addition by FLUO-4 AM dye based fluorescence assay; type: functional, cell-based
[14] = molecular target: Peroxisome proliferator-activated receptor gamma (Homo sapiens) (UniProt P37231); assay: Inhibition of human PPARgamma at 10 uM relative to control
[15] = molecular target: P2Y purinoceptor 1 (Homo sapiens) (UniProt P47900); assay: Inhibition of human P2Y1 assessed as reduction in agonist-induced intracellular Ca2+ concentration at 10 uM pre-incubated for 30 mins before agonist addition by FLUO-4 AM dye based fluorescence assay; type: functional, cell-based
[16] = molecular target: P2Y purinoceptor 2 (Homo sapiens) (UniProt P41231); assay: Inhibition of human P2Y2 assessed as reduction in agonist-induced intracellular Ca2+ concentration at 10 uM pre-incubated for 30 mins before agonist addition by FLUO-4 AM dye based fluorescence assay; type: functional, cell-based
[17] = molecular target: Procathepsin L (Homo sapiens) (UniProt P07711); assay: Inhibition of cathepsin L (unknown origin) assessed as reduction in pNA release using chromogenic Z-Phe-Arg-pNA substrate measured over 1 hr by spectrophotometry
[18] = molecular target: Adenosine receptor A2b (Homo sapiens) (UniProt P29275); assay: Inhibition of human A2B adenosine receptor incubated for 60 mins by liquid scintillation counting method
[19] = molecular target: Cathepsin B (Homo sapiens) (UniProt P07858); assay: Inhibition of cathepsin B (unknown origin) assessed as reduction in pNA release using chromogenic Z-Arg-Arg-pNA substrate measured over 1 hr by spectrophotometry
[20] = molecular target: P2X purinoceptor 4 (Homo sapiens) (UniProt Q99571); assay: Inhibition of human P2X4 assessed as reduction in agonist-induced intracellular Ca2+ concentration at 10 uM pre-incubated for 30 mins before agonist addition by FLUO-4 AM dye based fluorescence assay; type: cell-based
[21] = molecular target: Adenosine receptor A2a (Homo sapiens) (UniProt P29274); assay: Inhibition of human A2A adenosine receptor incubated for 60 mins by liquid scintillation counting method
Trypsin (Homo sapiens) = Trypsin (Homo sapiens) (UniProt P07477+P07478+P35030); assay: Inhibition of trypsin (unknown origin) assessed as reduction in pNA release using chromogenic Suc-Ala-Ala-Pro-Arg-pNA substrate measured over 10 mins by spectrophotometry; type: protein assay
[22] = Stability in CD1 mouse liver microsomes assessed as rapid demethylation at 1 uM; type: ADME, Microsome
[23] = Intrinsic clearance in CD1 mouse liver microsomes at 1 uM; type: ADME, Microsome; conditions: read-out: CLH
[24] = Stability in CD1 mouse liver microsomes assessed as rapid oxidation at 1 uM; type: ADME, Microsome
[25] = Stability in CD1 mouse liver microsomes assessed as rapid hydroxylation at 1 uM; type: ADME, Microsome
[26] = Stability in human liver microsomes assessed as rapid oxidation at 1 uM; type: ADME, Microsome
[27] = Stability in human liver microsomes assessed as rapid demethylation at 1 uM; type: ADME, Microsome
[28] = Stability in human liver microsomes assessed as rapid hydroxylation at 1 uM; type: ADME, Microsome

Chain of Procathepsin L (Homo sapiens) (P07711 114-333 limits assumed): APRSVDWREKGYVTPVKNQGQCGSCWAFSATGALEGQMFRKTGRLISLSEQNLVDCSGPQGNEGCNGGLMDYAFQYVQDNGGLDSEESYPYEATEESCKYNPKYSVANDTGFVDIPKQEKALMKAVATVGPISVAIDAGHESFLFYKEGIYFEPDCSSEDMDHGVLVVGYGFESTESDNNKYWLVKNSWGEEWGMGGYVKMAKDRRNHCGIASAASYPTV
Chain of Peroxisome proliferator-activated receptor gamma (Homo sapiens) (P37231 whole entry): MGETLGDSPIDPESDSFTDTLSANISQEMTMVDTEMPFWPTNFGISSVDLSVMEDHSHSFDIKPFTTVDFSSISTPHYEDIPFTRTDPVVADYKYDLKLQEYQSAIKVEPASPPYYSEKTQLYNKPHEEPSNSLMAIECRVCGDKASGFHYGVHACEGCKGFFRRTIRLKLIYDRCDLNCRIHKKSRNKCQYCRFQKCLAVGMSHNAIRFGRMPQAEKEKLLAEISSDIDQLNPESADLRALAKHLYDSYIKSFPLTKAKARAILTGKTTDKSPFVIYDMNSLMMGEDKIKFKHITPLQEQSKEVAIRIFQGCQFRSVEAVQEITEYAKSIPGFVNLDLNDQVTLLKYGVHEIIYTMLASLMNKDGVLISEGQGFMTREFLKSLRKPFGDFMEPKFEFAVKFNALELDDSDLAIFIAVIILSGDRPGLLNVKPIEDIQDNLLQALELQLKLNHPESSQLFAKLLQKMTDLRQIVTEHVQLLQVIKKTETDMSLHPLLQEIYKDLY
Chain of P2X purinoceptor 1 (Homo sapiens) (P51575 whole entry): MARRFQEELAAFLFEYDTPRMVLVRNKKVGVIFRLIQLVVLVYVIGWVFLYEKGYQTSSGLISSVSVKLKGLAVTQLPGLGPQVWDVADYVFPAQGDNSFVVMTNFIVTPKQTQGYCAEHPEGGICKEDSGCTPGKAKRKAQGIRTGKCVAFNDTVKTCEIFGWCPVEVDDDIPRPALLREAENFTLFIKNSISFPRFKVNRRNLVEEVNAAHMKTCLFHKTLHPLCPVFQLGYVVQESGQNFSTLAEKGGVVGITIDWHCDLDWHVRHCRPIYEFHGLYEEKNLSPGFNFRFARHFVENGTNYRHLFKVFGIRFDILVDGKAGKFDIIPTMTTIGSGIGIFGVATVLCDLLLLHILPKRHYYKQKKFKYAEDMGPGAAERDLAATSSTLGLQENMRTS
Chain of P2Y purinoceptor 1 (Homo sapiens) (P47900 whole entry): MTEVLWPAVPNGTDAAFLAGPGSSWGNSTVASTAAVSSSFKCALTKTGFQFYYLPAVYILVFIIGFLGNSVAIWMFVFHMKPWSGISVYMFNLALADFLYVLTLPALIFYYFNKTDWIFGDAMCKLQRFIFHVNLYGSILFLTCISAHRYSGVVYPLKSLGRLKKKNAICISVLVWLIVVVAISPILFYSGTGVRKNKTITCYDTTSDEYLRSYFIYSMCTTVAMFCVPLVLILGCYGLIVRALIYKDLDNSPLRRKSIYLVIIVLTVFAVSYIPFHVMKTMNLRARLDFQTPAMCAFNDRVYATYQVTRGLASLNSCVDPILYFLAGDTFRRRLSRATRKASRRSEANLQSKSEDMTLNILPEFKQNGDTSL
Chain of Uracil nucleotide/cysteinyl leukotriene receptor (Homo sapiens) (Q13304 whole entry): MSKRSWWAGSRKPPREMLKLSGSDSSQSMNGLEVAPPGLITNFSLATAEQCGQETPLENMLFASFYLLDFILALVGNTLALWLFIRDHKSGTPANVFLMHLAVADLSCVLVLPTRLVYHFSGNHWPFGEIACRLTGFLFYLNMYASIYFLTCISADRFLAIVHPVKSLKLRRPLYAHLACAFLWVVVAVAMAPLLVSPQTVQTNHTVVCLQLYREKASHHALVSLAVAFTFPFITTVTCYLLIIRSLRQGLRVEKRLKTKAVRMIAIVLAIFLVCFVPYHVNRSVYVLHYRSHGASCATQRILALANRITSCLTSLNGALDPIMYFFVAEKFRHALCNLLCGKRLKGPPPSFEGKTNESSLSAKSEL
Chain of P2X purinoceptor 2 (Homo sapiens) (Q9UBL9 whole entry): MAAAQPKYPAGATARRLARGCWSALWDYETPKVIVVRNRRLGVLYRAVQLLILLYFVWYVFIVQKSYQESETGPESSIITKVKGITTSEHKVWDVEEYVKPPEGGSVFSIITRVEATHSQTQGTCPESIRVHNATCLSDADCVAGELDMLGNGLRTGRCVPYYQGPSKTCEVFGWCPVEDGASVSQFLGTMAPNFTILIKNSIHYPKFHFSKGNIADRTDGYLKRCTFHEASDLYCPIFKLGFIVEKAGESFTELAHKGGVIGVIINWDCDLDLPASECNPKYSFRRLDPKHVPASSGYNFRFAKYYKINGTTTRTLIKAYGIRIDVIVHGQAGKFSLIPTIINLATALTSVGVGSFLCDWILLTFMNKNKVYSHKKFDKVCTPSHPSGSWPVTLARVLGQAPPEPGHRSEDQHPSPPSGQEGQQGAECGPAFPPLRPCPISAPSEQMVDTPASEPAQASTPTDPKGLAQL
Chain of P2Y purinoceptor 11 (Homo sapiens) (Q96G91 whole entry): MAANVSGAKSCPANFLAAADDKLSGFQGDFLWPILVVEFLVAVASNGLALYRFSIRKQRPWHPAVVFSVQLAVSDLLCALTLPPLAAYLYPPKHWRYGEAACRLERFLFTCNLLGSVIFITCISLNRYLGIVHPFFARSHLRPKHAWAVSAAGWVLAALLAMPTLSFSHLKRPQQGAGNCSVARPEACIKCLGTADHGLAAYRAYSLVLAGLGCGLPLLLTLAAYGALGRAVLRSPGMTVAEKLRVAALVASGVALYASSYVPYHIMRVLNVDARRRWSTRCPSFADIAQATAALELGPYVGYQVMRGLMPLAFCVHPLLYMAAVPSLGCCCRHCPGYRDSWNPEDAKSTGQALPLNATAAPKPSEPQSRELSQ
Chain of Adenosine receptor A1 (Homo sapiens) (P30542 whole entry): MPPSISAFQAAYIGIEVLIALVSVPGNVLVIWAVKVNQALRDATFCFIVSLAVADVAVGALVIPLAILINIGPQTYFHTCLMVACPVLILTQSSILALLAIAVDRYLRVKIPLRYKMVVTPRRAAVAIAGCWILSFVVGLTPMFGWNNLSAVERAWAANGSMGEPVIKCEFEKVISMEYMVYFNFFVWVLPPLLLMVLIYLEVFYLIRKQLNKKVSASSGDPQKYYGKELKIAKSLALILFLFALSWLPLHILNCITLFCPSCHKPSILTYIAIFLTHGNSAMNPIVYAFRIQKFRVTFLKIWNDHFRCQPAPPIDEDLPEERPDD
Chain of P2Y purinoceptor 14 (Homo sapiens) (Q15391 whole entry): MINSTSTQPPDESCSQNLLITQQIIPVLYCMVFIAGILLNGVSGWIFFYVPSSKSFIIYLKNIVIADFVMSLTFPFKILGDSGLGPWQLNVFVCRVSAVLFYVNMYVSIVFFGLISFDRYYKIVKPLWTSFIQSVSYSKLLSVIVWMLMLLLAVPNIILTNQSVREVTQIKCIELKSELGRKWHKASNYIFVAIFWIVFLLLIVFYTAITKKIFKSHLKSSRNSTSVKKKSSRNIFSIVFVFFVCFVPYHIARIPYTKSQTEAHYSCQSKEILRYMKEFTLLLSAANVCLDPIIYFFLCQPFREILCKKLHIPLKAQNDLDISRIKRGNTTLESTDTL
Chain of Adenosine receptor A2a (Homo sapiens) (P29274 whole entry): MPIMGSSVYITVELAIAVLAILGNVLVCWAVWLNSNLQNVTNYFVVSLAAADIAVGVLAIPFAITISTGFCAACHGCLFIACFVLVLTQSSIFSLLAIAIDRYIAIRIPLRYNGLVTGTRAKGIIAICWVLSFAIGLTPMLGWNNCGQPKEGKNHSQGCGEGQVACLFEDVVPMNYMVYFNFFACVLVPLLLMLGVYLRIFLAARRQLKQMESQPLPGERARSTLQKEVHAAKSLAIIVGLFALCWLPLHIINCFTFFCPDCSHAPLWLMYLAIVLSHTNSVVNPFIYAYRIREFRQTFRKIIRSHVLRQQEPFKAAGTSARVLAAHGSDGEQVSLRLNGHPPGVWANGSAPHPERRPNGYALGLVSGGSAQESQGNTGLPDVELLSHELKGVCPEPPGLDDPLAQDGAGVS
Chain of P2X purinoceptor 4 (Homo sapiens) (Q99571 whole entry): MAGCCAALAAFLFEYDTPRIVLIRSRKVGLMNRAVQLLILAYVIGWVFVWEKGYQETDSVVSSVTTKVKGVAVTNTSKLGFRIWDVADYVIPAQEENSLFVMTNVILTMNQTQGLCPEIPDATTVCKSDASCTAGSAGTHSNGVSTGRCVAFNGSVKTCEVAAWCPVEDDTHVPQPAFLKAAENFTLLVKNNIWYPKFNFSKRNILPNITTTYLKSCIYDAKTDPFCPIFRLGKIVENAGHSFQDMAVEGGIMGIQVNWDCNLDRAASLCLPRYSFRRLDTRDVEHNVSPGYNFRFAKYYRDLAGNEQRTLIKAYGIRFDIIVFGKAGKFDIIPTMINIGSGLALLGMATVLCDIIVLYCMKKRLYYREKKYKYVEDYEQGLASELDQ
Chain of P2X purinoceptor 7 (Homo sapiens) (Q99572 whole entry): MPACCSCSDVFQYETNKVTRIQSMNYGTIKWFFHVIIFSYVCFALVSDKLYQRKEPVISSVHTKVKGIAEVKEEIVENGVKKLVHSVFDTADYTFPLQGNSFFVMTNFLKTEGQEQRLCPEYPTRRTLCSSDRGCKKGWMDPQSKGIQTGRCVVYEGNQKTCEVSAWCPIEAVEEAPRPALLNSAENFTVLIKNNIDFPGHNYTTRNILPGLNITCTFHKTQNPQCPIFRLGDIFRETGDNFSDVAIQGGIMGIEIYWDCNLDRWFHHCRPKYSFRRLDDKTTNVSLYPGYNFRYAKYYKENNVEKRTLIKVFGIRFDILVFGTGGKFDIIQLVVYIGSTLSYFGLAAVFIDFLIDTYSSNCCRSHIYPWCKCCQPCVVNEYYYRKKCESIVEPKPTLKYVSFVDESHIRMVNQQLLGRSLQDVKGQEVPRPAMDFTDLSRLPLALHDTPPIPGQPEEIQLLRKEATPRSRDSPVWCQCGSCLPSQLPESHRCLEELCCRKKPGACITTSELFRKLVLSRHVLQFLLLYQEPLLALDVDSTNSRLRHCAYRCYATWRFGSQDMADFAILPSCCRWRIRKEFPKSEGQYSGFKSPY

## CNC(=O)O[C@@H](CC(C)C)c1nc([C@H]2OC(=O)C/C=C/C(C)=C/[C@@H](O)[C@@H](C)\C=C(C)/C=C(C)\C=C\[C@@H](O)[C@H](C)[C@H](O)/C(C)=C/C=C/[C@@H]2C)cs1
P2X purinoceptor 3
  IC50: > 10000 nM
Neutrophil elastase; read-out: IC50
  IC50: 1540 nM
[1]
  IC50: 213 nM
cells
  IC50: 3050 nM
Adenosine receptor A3
  Ki: 1380 nM

## CNC(=O)O[C@@H](CC(C)C)c1nc([C@H]2OC(=O)[C@H](C)/C=C/C(C)=C/[C@@H](O)[C@@H](C)\C=C(C)/C=C(C)\C=C\[C@@H](O)[C@H](C)[C@H](OC)/C(C)=C/C=C/[C@@H]2C)cs1
P2X purinoceptor 3
  IC50: > 2000 nM
Neutrophil elastase; read-out: IC50
  IC50: 595 nM
[1]
  IC50: 7.94 nM
cells
  IC50: 2.58 nM
Adenosine receptor A3
  Ki: ≥ 10000 nM

## CO[C@@H]1/C(C)=C/C=C/CCOC(=O)C/C=C/C(C)=C/[C@@H](O)[C@@H](C)\C=C(C)/C=C(C)\C=C\[C@@H](O)[C@@H]1C
Neutrophil elastase; read-out: IC50
  IC50: 5850 nM
Adenosine receptor A3
  Ki: 609 nM

## CNC(=O)O[C@@H](CC(C)C)c1nc([C@@H](O)[C@@H](C)/C=C/C=C(\C)[C@@H](OC)[C@@H](C)[C@H](O)/C=C/C(C)=C\C(C)=C/[C@H](C)[C@H](O)/C=C(C)/C=C/CC(=O)OC)cs1
P2X purinoceptor 3
  IC50: > 10000 nM
Neutrophil elastase; read-out: IC50
  IC50: 2340 nM
[1]
  IC50: 352 nM
cells
  IC50: 296 nM
Adenosine receptor A3
  Ki: 1610 nM

## CNC(=O)O[C@@H](CC(C)C)c1nc([C@H]2OC(=O)[C@@H](C)/C=C/C(C)=C/[C@@H](O)[C@@H](C)\C=C(C)/C=C(C)\C=C\[C@@H](O)[C@H](C)[C@H](OC)/C(C)=C/C=C/[C@@H]2C)cs1
P2X purinoceptor 3
  IC50: 648 nM
Neutrophil elastase; read-out: IC50
  IC50: 721 nM
[1]
  IC50: 5.52 nM
cells
  IC50: 2.16 nM
Adenosine receptor A3
  Ki: 1140 nM

## CNC(=O)O[C@@H](CC(C)C)c1nc([C@H]2OC(=O)/C(C)=C/C/C(C)=C/[C@@H](O)[C@@H](C)\C=C(C)/C=C(C)\C=C\[C@@H](O)[C@H](C)[C@H](OC)/C(C)=C/C=C/[C@@H]2C)cs1 [ARCHAZOLID A]
Homo sapiens
  inhibition: 52%
[2]
  inhibition: inactive
[3]
  inhibition: inactive
P2X purinoceptor 3
  IC50: 86.1 nM
[4]
  inhibition: inactive
Neutrophil elastase; read-out: IC50
  IC50: 352 nM
[5]
  inhibition: inactive
[6]
  inhibition: inactive
[7]
  inhibition: inactive
[8]
  inhibition: inactive
[1]
  IC50: 6.33 nM
[9]
  inhibition: inactive
[10]
  inhibition: inactive
[11]
  inhibition: inactive
[12]
  inhibition: Dose-dependent effect
[13]
  inhibition: inactive
[14]
  inhibition: 82%
[15]
  inhibition: inactive
[16]
  inhibition: inactive
cells
  IC50: 0.253 nM
[17]
  inhibition: inactive
Adenosine receptor A3
  Ki: 967 nM
[18]
  inhibition: inactive
[19]
  inhibition: inactive
[20]
  inhibition: inactive
[21]
  inhibition: inactive
Trypsin (Homo sapiens)
  inhibition: inactive

## CNC(=O)O[C@@H](CC(C)C)c1nc([C@H]2OC(=O)C/C=C/C(C)=C/[C@@H](O)[C@@H](C)\C=C(C)/C=C(C)\C=C\[C@@H](O)[C@H](C)[C@H](OC)/C(C)=C/C=C/[C@@H]2C)cs1 [ARCHAZOLID F]
P2X purinoceptor 3
  IC50: 438 nM
Neutrophil elastase; read-out: IC50
  IC50: 830 nM
[22]
  Drug metabolism: Metabolite_Detected
[23]
  microsomal CLint at 1 µM: 271 µL/min/mg
[24]
  Drug metabolism: Metabolite_Detected
[25]
  Drug metabolism: Metabolite_Detected
[1]
  IC50: 6.26 nM
[26]
  Drug metabolism: Metabolite_Detected
[10]
  inhibition: inactive
[27]
  Drug metabolism: Metabolite_Detected
[28]
  Drug metabolism: Metabolite_Detected
cells
  IC50: 4.51 nM
[17]
  inhibition: inactive
Adenosine receptor A3
  Ki: 859 nM
[19]
  inhibition: inactive
Trypsin (Homo sapiens)
  inhibition: inactive

## CO/C1=C\C(C)=C\[C@@H](C)[C@@H](O)[C@@H](C)C/C(C)=C/C=C/[C@H](OC)[C@@H]([C@@H](C)[C@@H](O)[C@H](C)[C@@]2(O)C[C@@H](O)[C@H](C)[C@@H](C(C)C)O2)OC1=O [BAFILOMYCIN A1]
P2X purinoceptor 3
  IC50: 755 nM
Neutrophil elastase
  IC50: Not Active
[1]
  IC50: 10 nM
cells
  IC50: 3.06 nM
Adenosine receptor A3
  Ki: 1080 nM
